Data published in PMC5834492, “Antimycobacterial drug discovery using Mycobacteria-infected amoebae identifies anti-infectives and new molecular targets” (Scientific Reports, 2018).

What was measured:
M. marinum luxCDABE = assay type: cell-based, Mycobacterium marinum
Mtb H37Rv in THP-1 = tested on: Mtb H37Rv in THP-1; parameters: method as in Sorrentino et al, 2015; conditions: ref Sorrentino et al, 2015, cited from earlier work; for Intracelullar MIC90 in THP-1: THP1 / Mtb H37Rv infection assay; for Extracellular MIC90/ Inracellular MIC90: ratio
[1] = tested on: M. marinum in BV2 microglial cells; assay type: cell-based, Mycobacterium marinum
[2] = tested on: M. marinum in A. castellanii; assay type: cell-based, Mycobacterium marinum
Mtb H37Rv = tested on: Mtb H37Rv; parameters: method as in Sorrentino et al, 2015; conditions: ref Sorrentino et al, 2015; cited from earlier work

| Compound | Antibiotic assays: M. marinum luxCDABE (M. marinum luxCDABE) | Intracelullar MIC90 in THP-1 (Mtb H37Rv in THP-1) [µM] | Extracellular MIC90/ Inracellular MIC90 (Mtb H37Rv in THP-1) | Intracellular infection assays: BV2 / M. marinum [1] | Intracellular infection assays: A. castellanii / M. marinum [2] | Growth inhibition / Cytotoxicity assays: BV2 cells (BV2 cells) | Extracellular MIC90 (Mtb H37Rv) [µM] | Growth inhibition / Cytotoxicity assays: D. discoideum GFP-ABD (D. discoideum GFP-ABD) |
| --- | --- | --- | --- | --- | --- | --- | --- | --- |
| O=C(C=Cc1ccccc1)N1CCN(Cc2ccc3c(c2)OCO3)CC1 [SB-516933] | 0.41 | 5.55 | 0.67 | 1.10 | 1.12 | False | 3.7 | 0.97 |
| O=C(CCC1CCCCC1)Nc1cccc(-c2nnc(-c3ccco3)o2)c1 [GSK937213A] | 0.00 | 0.61 | 10 | 1.14 | 1.06 | False | 6.1 | 1.19 |
| c1ccc(CCNc2cc(-c3ccccc3)nc3nncn23)cc1 [GSK1402290A] | 0.14 | 5.55 | 0.99 | 1.11 | 1.08 | False | 5.5 | 0.84 |
| COc1ccc(-c2ccc(Nc3cccc(S(=O)(=O)CCNCCc4cccs4)c3)nc2)cn1 [GSK1826089A] | 0.085 | 1.85 | 4.11 | 1.09 | 1.17 | False | 7.6 | 0.69 |
| CCc1ccc(C2CC(C(F)(F)F)n3ncc(C(=O)NCc4cccs4)c3N2)cc1 (stereo not drawn) [GSK1589671A] | 0.16 | 0.21 | 20.95 | 1.74 | 1.63 | False | 4.4 | 0.99 |
| O=C(CCSc1ccc(Cl)cc1)Nc1nc(-c2ccccn2)cs1 [GSK920703A] | 0.13 | 5.55 | 1.51 | 1.24 | 1.34 | False | 8.4 | 0.48 |
| Cc1ccc(CNC(=O)c2cnn3c2NC(c2ccc(C)cc2)CC3C(F)F)cc1 (stereo not drawn) [GSK1180781A] | 1.00 | 0.21 | 5.71 | 1.23 | 1.14 | False | 1.2 | 1.05 |
| Fc1ccccc1-c1noc(N2CCN(Cc3ccc4c(c3)OCO4)CC2)n1 [GSK1434490A] | 0.68 | 5.55 | 0.94 | 1.16 | 1.24 | False | 5.2 | 0.93 |
| Cc1cccc(-c2nc(Nc3ccncn3)c3c(C)csc3n2)n1 [GSK163574A] | 0.00 | 50 | 0.01 | 1.25 | 1.13 | False | 0.3 | 0.81 |
| O=C(N[C@@H](Cc1ccccc1)C(=O)Nc1ccccc1N1CCOCC1)c1cccs1 [GSK1729177A] | 0.00 | 50 | 0.13 | 1.02 | 0.64 | True | 6.6 | 1.04 |
| Cc1cc(NCCc2ccccc2)nc(/N=C(\N)Nc2ccc(Cl)cc2)n1 [CCI7967] | 0.00 | 0.61 | 3.93 | 1.01 | 1.16 | False | 2.4 | 0.89 |
| FC(F)(F)c1cc(SCc2ccccc2)nc(-c2ccccn2)n1 [GSK847913A] | 0.00 | 1.85 | 1.78 | 1.39 | 0.90 | False | 3.3 | 0.94 |
| Cc1ccc(C2CC(C(F)(F)F)n3ncc(C(=O)NCc4ccc5c(c4)OCO5)c3N2)cc1 (stereo not drawn) [GSK937733A] | 1.00 | 0.61 | 8.85 | 1.64 | 1.38 | False | 5.4 | 0.94 |
| COc1cc(Nc2ccccc2)ccc1NS(=O)(=O)c1c(C)noc1C [GSK270670A] | 1.00 | 50 | 0.12 | 1.42 | 1.11 | False | 6.1 | 0.94 |
| COc1ccc2nc(C)cc(OCC(=O)Nc3ccccc3OC)c2c1 [GSK358607A] | 0.00 | 1.85 | 0.22 | 0.98 | 0.55 | False | 0.4 | 0.39 |
| Cc1nn(Cc2ccccc2)c(Cl)c1C(=O)NC1CCCCCC1 [GSK636544A] | 0.00 | 1.85 | 2.81 | 1.35 | 1.07 | False | 5.2 | 0.93 |
| COc1ccc(CC(=O)Nc2c(-c3cccs3)nc3cc(C)ccn23)cc1 [GSK1857145A] | 1.00 | 5.55 | 1.22 | 1.12 | 1.19 | False | 6.8 | 0.93 |
| O=C(C1CCN(c2nnc(-n3cccc3)s2)CC1)N1CCC(Cc2ccccc2)CC1 [GSK2032710A] | 0.00 | 0.61 | 6.88 | 1.25 | 1.06 | False | 4.2 | 1.04 |
| O=C(Nc1nc(-c2ccccn2)cs1)c1cncn1-c1ccccc1 [GSK1691553A] | 0.07 | 50 | 0.16 | 1.01 | 1.03 | False | 7.9 | 0.80 |
| CN1CCN(c2cc(-c3ccc(F)cc3)nc(-c3ccncc3)n2)CC1 [GSK276001A] | 0.63 | 50 | 0.15 | 1.11 | 1.04 | False | 7.4 | 0.65 |
| O=C(Nc1nnc(-c2ccc(Cl)cc2)o1)c1cccc(C(F)(F)F)c1 [GSK130506A] | 0.00 | 16.65 | 0.34 | 1.46 | 1.05 | False | 5.6 | 1.07 |
